Measurements as given in publication PMC4929166, “Pharmacological evaluation of synthetic cannabinoids identified as constituents of spice” (Forensic Toxicology, 2016).
Read-outs that look alike come from different tables or passages of the source.

Columns and labels:
Human CB2 [1] = settings: read-out: EC50 Human CB2 (literature, functional assay) (converted), cited from earlier work
Human CB1 [2] = settings: read-out: EC50 Human CB1 (literature, functional assay) (converted), cited from earlier work
human GPR55 = target: T1, human GPR55 (Homo sapiens, UniProt Q9Y2T6); test: β-Arrestin recruitment assay (PathHunter) at GPR55; assay type: cell-based; settings: for Human GPR55 % activation / Human GPR55 % inhibition: β-arrestin assay; for Human GPR55 % activation: percent in brackets beside EC50 >10 µM; for Human GPR55 % inhibition: percent in brackets beside IC50
T1 construct: β-galactosidase enzyme fragment (PathHunter complementation tag)
Procedure: (§1) Recruitment of β-arrestin to the respective receptor was detected by using β-galactosidase enzyme fragment complementation technology (β-arrestin PathHunter™ assay, DiscoverX, Fremont, CA, USA) as previously described. Data were obtained from three independent experiments, performed in duplicates. Data were analyzed using Graph Pad Prism Version 4.02 (San Diego, CA, USA).

CB1 receptor [3] = target: T2, CB1 receptor (Homo sapiens, UniProt P21554); test: biochemical; assay type: binding; design: expressed in transfected cells; host or cells: CHO cells (membrane preparation); settings: for Ki: versus 0.1 nM [3H]CP55,940, CHO cell membranes, mean ± SEM of three to five experiments, read-out: Ki ± SEM Human CB1; for CB1 selectivity Ki CB2/KiCB1: Table S1, selectivity index from Ki values
human GPR18 = target: T3, human GPR18 (Homo sapiens, UniProt Q14330); test: β-Arrestin recruitment assay (PathHunter) at GPR18; assay type: cell-based; settings: for Human GPR18 % activation / Human GPR18 % inhibition: β-arrestin assay; for Human GPR18 % activation: percent in brackets beside EC50 >10 µM; for Human GPR18 % inhibition: percent in brackets beside IC50
T3 construct: β-galactosidase enzyme fragment (PathHunter complementation tag)
T3 sequence (Q14330 1-331): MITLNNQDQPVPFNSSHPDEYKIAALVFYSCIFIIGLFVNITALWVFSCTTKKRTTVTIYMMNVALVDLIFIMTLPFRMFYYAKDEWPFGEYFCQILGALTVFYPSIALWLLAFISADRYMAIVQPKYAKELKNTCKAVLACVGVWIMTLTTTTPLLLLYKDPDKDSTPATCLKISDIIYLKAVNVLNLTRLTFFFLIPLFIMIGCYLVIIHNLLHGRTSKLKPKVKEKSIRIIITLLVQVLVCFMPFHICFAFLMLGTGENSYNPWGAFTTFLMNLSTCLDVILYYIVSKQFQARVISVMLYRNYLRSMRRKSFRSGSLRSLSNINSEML
Procedure: as §1

CB2 receptor [4] = target: T4, CB2 receptor (Homo sapiens, UniProt P34972); test: biochemical; assay type: binding; design: expressed in transfected cells; host or cells: CHO cells (membrane preparation); settings: for Ki: versus 0.1 nM [3H]CP55,940, CHO cell membranes, mean ± SEM of three to five experiments, read-out: Ki ± SEM Human CB2
Human CB2 [5] = settings: read-out: Ki Human CB2 (literature) (converted), cited from earlier work
Human CB1 [6] = settings: cited from earlier work
CB2 receptor [7] = target: T4, CB2 receptor; test: cAMP accumulation assay in CHO cells expressing CB2; assay type: cell-based; design: expressed in transfected cells; host or cells: CHO cells; settings: cAMP accumulation, forskolin 10 µM; test concentration 1 µM or 10 µM; normalized to CP55,940
CB1 receptor [8] = target: T2, CB1 receptor; test: cell-based; assay type: cell-based; design: expressed in transfected cells; host or cells: CHO cells; settings: cAMP accumulation, forskolin 10 µM; test concentration 1 µM or 10 µM; normalized to CP55,940
[9] = Human GPR55 IC50, β-arrestin assay, antagonist mode
[10] = Table S1, selectivity index from Ki values

T1 sequence (Q9Y2T6 whole entry, the tested form may be a part): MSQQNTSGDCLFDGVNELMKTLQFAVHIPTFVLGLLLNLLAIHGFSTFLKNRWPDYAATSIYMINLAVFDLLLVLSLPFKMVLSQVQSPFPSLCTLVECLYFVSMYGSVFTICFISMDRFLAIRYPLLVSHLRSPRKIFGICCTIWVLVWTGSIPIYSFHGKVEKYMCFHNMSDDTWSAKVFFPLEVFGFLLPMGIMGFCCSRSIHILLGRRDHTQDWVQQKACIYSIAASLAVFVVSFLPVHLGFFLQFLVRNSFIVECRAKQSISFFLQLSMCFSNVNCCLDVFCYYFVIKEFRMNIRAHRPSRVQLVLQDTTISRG
T4 sequence (P34972 whole entry): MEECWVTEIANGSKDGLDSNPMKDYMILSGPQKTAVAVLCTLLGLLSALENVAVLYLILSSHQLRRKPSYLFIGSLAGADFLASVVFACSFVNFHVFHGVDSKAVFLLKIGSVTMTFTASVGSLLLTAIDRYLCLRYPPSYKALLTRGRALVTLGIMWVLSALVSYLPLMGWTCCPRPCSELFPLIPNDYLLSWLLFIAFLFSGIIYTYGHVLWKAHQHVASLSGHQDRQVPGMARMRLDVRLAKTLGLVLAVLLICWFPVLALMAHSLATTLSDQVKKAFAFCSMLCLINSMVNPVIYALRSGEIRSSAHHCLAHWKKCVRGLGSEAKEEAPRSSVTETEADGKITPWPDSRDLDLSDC
T2 sequence (P21554 whole entry): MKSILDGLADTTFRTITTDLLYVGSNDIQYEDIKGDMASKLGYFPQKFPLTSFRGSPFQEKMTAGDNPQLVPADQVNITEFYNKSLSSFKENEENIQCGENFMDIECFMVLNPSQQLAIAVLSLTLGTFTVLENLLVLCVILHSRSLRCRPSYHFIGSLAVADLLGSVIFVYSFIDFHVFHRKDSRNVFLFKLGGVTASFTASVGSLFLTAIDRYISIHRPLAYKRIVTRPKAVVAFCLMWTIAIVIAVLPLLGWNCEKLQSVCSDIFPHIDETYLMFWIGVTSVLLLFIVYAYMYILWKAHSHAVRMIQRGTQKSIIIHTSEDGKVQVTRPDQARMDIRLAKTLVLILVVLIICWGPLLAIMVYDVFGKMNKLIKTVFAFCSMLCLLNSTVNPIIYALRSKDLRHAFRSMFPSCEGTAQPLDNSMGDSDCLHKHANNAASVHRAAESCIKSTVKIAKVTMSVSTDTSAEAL

| Compound | EC50 (human GPR55) [nM] | IC50 (human GPR55; [9]) [nM] | Human GPR55 % activation (human GPR55) [%] | Human GPR55 % inhibition (human GPR55) [%] | Ki (CB1 receptor [3]) [nM] | EC50 (human GPR18) [nM] | IC50 (human GPR18) [nM] | Human GPR18 % activation (human GPR18) [%] | Human GPR18 % inhibition (human GPR18) [%] | CB2 selectivity Ki CB1/KiCB2 (CB2 receptor [4]; [10]) | Ki (CB2 receptor [4]) [nM] | EC50 (Human CB2 [1]; ref Banister et al. [28]) [nM] | EC50 (Human CB1 [2]; ref Banister et al. [28]) [nM] | CB1 selectivity Ki CB2/KiCB1 (CB1 receptor [3]) | other results |
| --- | --- | --- | --- | --- | --- | --- | --- | --- | --- | --- | --- | --- | --- | --- | --- |
| CCCCCn1cc(C(=O)C23CC4CC(CC(C4)C2)C3)c2ccccc21 [Compound 35, AB001] | > 10000 | ~10000 | −14 | 56 | 33 ± 7.42 | > 10000 | ~10000 | −12 | 62 | 19.2 | 1.72 ± 0.15 |  |  |  | EC50 (Human CB2 [1]; ref Banister et al. [46]): 45 nM; EC50 (Human CB1 [2]; ref Banister et al. [46]): 35 nM |
| CC1(C)C(C(=O)c2cn(CC3CCOCC3)c3ccccc23)C1(C)C [Compound 46, A-834,735] | > 10000 |  | 8 |  |  | > 10000 | > 10000 | 6 | 6 |  | 0.566 ± 0.153 |  |  |  | Ki (Human CB2 [5]; ref Frost et al.[29]): 0.21 nM; IC50 (human GPR55; Human GPR55 IC50 (extrapolated), Extrapolated values, a full curve could not be determined due to limited solubility): 6880 ± 1510 nM |
| O=C(NC12CC3CC(CC(C3)C1)C2)c1cn(CCCCCF)c2ccccc12 [Compound 16, STS-135 (5F-APICA)] | > 10000 | 3410 ± 470 | 1 |  | 2.51 ± 0.35 | > 10000 | > 10000 | −2 | 30 | 3.2 | 0.794 ± 0.071 | 13 | 51 |  |  |
| CCCCCn1cc(C(=O)C2C(C)(C)C2(C)C)c2ccccc21 [Compound 37, UR-144] | > 10000 | 6700 ± 1650 | −5 |  | 55.9 ± 6.5 | > 10000 | > 10000 | 17 | 14 | 37.5 | 1.49 ± 0.25 |  |  |  | Ki (Human CB2 [5]; ref Frost et al. [40]): 1.8 nM; Ki (Human CB1 [6]; ref Frost et al. [40], read-out: Ki Human CB1 (literature) (converted)): 150 nM |
| CCCCCn1nc(C(=O)Oc2cccc3ccccc23)c2ccccc21 [Compound 22, SDB-005] | > 10000 | > 10000 | 8 | 23 | 3.59 ± 0.89 | > 10000 | > 10000 | 15 | 24 | 1.4 | 2.61 ± 1.07 | 140 | 116 |  |  |
| O=C(NCc1ccccc1)c1cn(CCCCCF)c2ccccc12 [Compound 13, 5F-SDB-006] | > 10000 | > 10000 | −3 | 11 | 71.9 ± 13.5 | > 10000 | > 10000 | 13 | −24 |  | 430 ± 73 | 123 | 50 | 6.0 |  |
| CCCCCn1cc(C(=O)NC23CC4CC(CC(C4)C2)C3)c2ccccc21 [Compound 15, APICA] | > 10000 | 4770 ± 1690 | 11 |  | 6.52 ± 3.73 | > 10000 | > 10000 | 8 | 44 |  | 1.22 ± 0.14 | 29 | 128 |  | CB2 selectivity Ki CB1/KiCB2 (CB2 receptor [4]): 5.3 |
| O=C(Oc1cccc2ccccc12)c1nn(CCCCCF)c2ccccc12 [Compound 23, 5F-SDB-005] | > 10000 | > 10000 | 21 | 47 | 2.58 ± 1.09 | > 10000 | > 10000 | 21 | 24 |  | 3.41 ± 1.34 | 136 | 148 | 1.3 |  |
| CCCCCn1cc(C(=O)Nc2ccc3ccccc3c2)c2ccccc21 [non-fluorinated derivative of compound 7, reference compound] |  |  |  |  |  |  |  |  |  |  |  |  |  |  | pKi value at the CB1 receptor (Human CB1 [6]; ref Blaazer et al. [33]): 7.2 |
| CCCCCn1cc(C(=O)NCc2ccccc2)c2ccccc21 [Compound 12, SDB-006] | > 10000 | > 10000 | −5 | 36 | 53 ± 1.1 | > 10000 | > 10000 | −9 | 22 |  | 188 ± 38 | 19 | 134 | 3.5 |  |
| CCCCCn1cc(C(=O)Oc2cccc3cccnc23)c2ccccc21 [Compound 24, PB-22] | > 10000 | > 10000 | 15 | -12 | 0.318 ± 0.071 | > 10000 | > 10000 | −18 | 26 |  | 0.433 ± 0.106 | 2.8 | 5.1 | 1.4 | efficacy at CB2 receptor (in words) (CB2 receptor [7]): partial agonist with similar efficacy as Δ^9-THC; efficacy at CB1 receptor (in words) (CB1 receptor [8]): partial agonist with similar efficacy as Δ^9-THC |
| CC1(C)C(C(=O)c2cn(CCN3CCOCC3)c3ccccc23)C1(C)C [Compound 45, A-796,260] | > 10000 |  | −1 |  |  | > 10000 | > 10000 | 20 | −10 |  | 8.02 ± 0.77 |  |  |  | Ki (Human CB2 [5]; ref Frost et al.[29]): 4.4 nM |
